Assay results: patent publication US5250537A, “5,6,7,8,9,10-hexahydro-7 ,10-iminocyclohept[b]indole,-6,7,8,9,10-hexahydro-7,11-imino-5H-cyclooct[ b]indole and substituted derivatives” (Scios Nova Inc., priority 1992, dated 1993)
Where two headings read alike, the source gives them in different places.

Experiments:
[1] = target: T1, serotonin 5-HT2 receptors (Rattus norvegicus, UniProt P14842); experiment: In Vitro Serotonin (5-HT2) Receptor Binding, [3H]ketanserin; conditions: for Ki: rat cortical membranes, 1 nM [3H]ketanserin
T1 construct: Rat cortical synaptosomal membranes were prepared on the day of assay; from tissue; host or cells: rat frontal cortex synaptosomal membranes
T1 sequence (P14842 whole entry): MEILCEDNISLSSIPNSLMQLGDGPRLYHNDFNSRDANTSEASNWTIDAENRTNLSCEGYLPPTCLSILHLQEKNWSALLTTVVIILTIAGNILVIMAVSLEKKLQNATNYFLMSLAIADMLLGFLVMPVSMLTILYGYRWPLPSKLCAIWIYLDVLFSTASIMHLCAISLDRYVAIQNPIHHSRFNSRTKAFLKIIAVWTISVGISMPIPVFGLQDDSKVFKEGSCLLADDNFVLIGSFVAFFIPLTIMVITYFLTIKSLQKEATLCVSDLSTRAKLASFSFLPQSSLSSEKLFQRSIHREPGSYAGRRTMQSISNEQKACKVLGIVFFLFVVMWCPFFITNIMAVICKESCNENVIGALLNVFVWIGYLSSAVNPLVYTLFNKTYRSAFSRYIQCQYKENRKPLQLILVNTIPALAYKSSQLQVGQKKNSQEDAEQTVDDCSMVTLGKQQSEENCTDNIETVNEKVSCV
Experimental: The potency of compounds to inhibit the specific binding of [^3 H]ketanserin (84.2 Ci/mM) to serotonin 5-HT2 receptors was determined as detailed previously [J. E. Leysen, C. J. E. Niemegers, J. M. Van Neuten and P. M. Laduron, Mol. Pharmacol., 21, 301-314 (1982)]. Rat cortical synaptosomal membranes were prepared on the day of assay. Animals were sacrified by decapitation, the frontal cortex was removed and homogenized in 10 volumes (w/v) of ice-cold 0.32M sucrose using a motor driven teflon pestle fitted to a glass tube. The synaptosomal pellet was suspended in 50 mM Tris HCl (pH 7.6 at 25° C.) to a concentration of 7.5 mg original wet weight/mL. For the binding reaction, 400 μL of this tissue suspension was added to polypropylene tubes containing 50 mM Tris HCl and [^3 H]ketanserin (final concentration of 1 nM) in a final assay volume of 0.5 mL. Following a 15 minute incubation at 37° C., the binding reaction was terminated by rapid vacuum filtration over Whatman GF/B filters (presoaked in 0.1% PEI) followed by 3×4 mL washes with ice cold 50 mM Tris HCl. Nonspecific binding was assessed in the presence of 10 μM methysergide. All incubations were performed in triplicate. IC50 values were determined using log logit analysis.

dopamine (D-2) receptors = target: T2, dopamine (D-2) receptors (Rattus norvegicus, UniProt P61169); experiment: In Vitro Dopamine (D-2) Receptor Binding, [3H]sulpiride
T2 construct: the corpus striatum was dissected and homogenized; from tissue; host or cells: rat corpus striatum membranes
T2 sequence (P61169 whole entry): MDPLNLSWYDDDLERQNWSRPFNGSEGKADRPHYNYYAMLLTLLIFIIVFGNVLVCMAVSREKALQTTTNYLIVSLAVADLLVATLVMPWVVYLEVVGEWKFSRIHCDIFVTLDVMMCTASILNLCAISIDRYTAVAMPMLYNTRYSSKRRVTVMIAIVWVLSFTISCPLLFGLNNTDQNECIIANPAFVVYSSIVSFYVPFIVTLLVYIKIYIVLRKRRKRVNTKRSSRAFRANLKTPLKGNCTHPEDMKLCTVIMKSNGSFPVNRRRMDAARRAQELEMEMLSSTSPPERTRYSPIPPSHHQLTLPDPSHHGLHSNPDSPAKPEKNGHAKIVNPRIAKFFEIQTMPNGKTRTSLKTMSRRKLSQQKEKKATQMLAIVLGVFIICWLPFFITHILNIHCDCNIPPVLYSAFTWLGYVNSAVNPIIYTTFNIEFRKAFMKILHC
Experimental: On the day of assay, rats were sacrificed by decapitation, the corpus striatum was dissected and homogenized in 20 volumes of ice-cold 50 mM Tris HCl (pH 7.5, 25° C.). The homogenate was centrifuged (4° C.) at 48,000×g for 10 minutes and the resulting pellet was resuspended in 20 volumes of fresh buffer and recentrifuged. […] A portion of the suspension (800 μL) was added in triplicate to tubes containing 3 nM [^3 H]sulpiride and the test compound. The final assay volume was 1 mL; haloperidol (10 μM) was used to determine non-specific binding. Following a 60 minute incubation at 25° C., the reactions were terminated by rapid filtration over Whatman GF/B filters which had been pretreated in a solution of 0.3% (w/v) of aqueous polyethylenimine. Filters were washed three times using 5 mL of ice-cold buffer and processed using standard procedures to determine radioactivity. IC50 values were obtained from concentration-response curves in which a number of concentrations of test compound were examined. Ki values were determined using the Cheng-Prusoff equation.

[2] = target: T3, sigma receptor ([3H](+)-3-PPP site) (Cavia porcellus, UniProt Q60492); experiment: In Vitro Sigma Receptor Binding, [3H](+)-3-PPP; parameters: species or system guinea pig; conditions: guinea pig brain; 45 minutes at 25° C.; read-out: Sigma [3H](+)-3-PPP binding IC50
T3 construct: frozen guinea pig brains; tissue PelFreez Biologicals, Rogers, AK; host or cells: guinea pig brain membranes
T3 sequence (Q60492 whole entry): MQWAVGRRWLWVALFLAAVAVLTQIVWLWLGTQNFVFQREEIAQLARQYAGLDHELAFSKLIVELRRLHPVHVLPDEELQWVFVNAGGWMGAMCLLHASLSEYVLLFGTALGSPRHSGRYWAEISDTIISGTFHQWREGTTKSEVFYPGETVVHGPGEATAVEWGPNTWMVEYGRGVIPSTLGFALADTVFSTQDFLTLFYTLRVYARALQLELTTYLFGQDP
Experimental: (§1) For both assays frozen guinea pig brains (PelFreez Biologicals, Rogers, AK) were thawed and homogenized in 10 volumes (w/v) of ice cold 0.32M sucrose using 10 strokes of a motor-drivenglass-fitted teflon pestle adjusted to 600 rpm. The homogenate was centrifuged (4° C.) at 900× g for 10 minutes and the resultant supernatant collected and centrifuged at 22,000×g for 20 minutes. The pellet obtained from the centrifugation was resuspended in 10 volumes of 50 mM Tris HCl (pH 7.4, 25° C.) and incubated for 30 minutes at 37° C. Following the preincubation, the homogenate was centrifuted at 22,000×g for 20 minutes and the final pellet was resuspended in buffer to a protein concentration of 0.5-1.0 mg/mL for use in the assay.
(§2) Binding reactions were initiated by the addition of tissue (800 μL) to tubes containing assay buffer, the radioligand (final concentration 1-3 nM) and the compound of interest. Haloperidol (10 μM) and (+)-3-PPP (10 μM) were used to determine the levels of […] [^3 H]DTG and [^3 H](+)PPP binding, respectively. Final assay volume was 1 mL. Reactions were allowed to proceed for 45 minutes at 25° C. and terminated by rapid filtration over Whatman GF/B filters which were washed 3 times with 5 mL of cold buffer. Radioactivity trapped on the filters was determined using routine methods. […] All assays were performed using triplicate determinations. For comparison purposes, IC50 values are reported rather than Ki values.

[3] = target: sigma receptor ([3H]DTG site); experiment: In Vitro Sigma Receptor Binding, [3H]DTG; conditions: guinea pig brain; 45 minutes at 25° C.
Experimental: as §1, §2

[4] = rat corpus striatum, 3 nM [3H]sulpiride, read-out: Dopamine D-2 [3H]sulpiride Ki
[5] = read-out: Serotonin 5-HT2 [3H]ketanserin, % @ 1 μM
[6] = read-out: Dopamine D-2 [3H]sulpiride Ki
[7] = read-out: Serotonin 5-HT2 [3H]ketanserin, value @ 1 μM
[8] = Dopamine D-2 [3H]sulpiride Ki, rat corpus striatum, 3 nM [3H]sulpiride

| SMILES | Ki [1] | Ki (dopamine (D-2) receptors; [4]) | inhibition at 1 µM [1, 5] | also measured |
| --- | --- | --- | --- | --- |
| O=C(CCCN1C2CCC1c1c([nH]c3ccccc13)C2)c1ccc(F)cc1 (stereo not drawn) [1 H H (CH2)3 CO 4-FPh 2] | 0.82 nM | 280 nM |  |  |
| Fc1ccc2[nH]c3c(c2c1)C1CCCC(C3)N1 (stereo not drawn) [12 F H -- H 3] | 3000 nM | 58300 nM |  | IC50 [2]: 305 nM; IC50 [3]: 509 nM |
| c1ccc(OCCCCN2C3CCC2c2c([nH]c4ccccc24)C3)cc1 (stereo not drawn) [1 H H (CH2)4 OPh 2] | 48 nM | 100 nM |  | IC50 [2]: 205 nM; IC50 [3]: 88 ± 15 nM |
| Fc1ccc2[nH]c3c(c2c1)C1CCC(C3)N1CCCc1cccnc1 (stereo not drawn) [4 F H (CH2)3 3-pyridyl 2] |  | 12200 ± 4700 nM | 0% |  |
| Fc1ccc(C(=CCCN2C3CCCC2c2c([nH]c4ccccc24)C3)c2ccc(F)cc2)cc1 (stereo not drawn) [11 H H (CH2)2 CHC (4-FPh)2 3] | > 1000 nM | 2310 nM |  | IC50 [2]: > 10000 nM; IC50 [3]: 1880 nM |
| Clc1ccc(OCCN2C3CCC2c2c([nH]c4ccccc24)C3)cc1 (stereo not drawn) [1 H H (CH2)2 O-4-ClPh 2] | 377 nM | 530 nM |  | IC50 [2]: 5980 ± 3510 nM; IC50 [3]: 268 ± 38 nM |
| c1ccc(CN2C3CCC2c2c([nH]c4ccccc24)C3)cc1 (stereo not drawn) [1 H H CH2 Ph 2] |  | 3650 nM | 22.4% |  |
| c1ccc(C(CCN2C3CCC2c2c([nH]c4ccccc24)C3)c2ccccc2)cc1 (stereo not drawn) [1 H H (CH2)2 CHPh2 2] |  | 4520 nM | 27.3% |  |
| Fc1ccc2[nH]c3c(c2c1)C1CCC(C3)N1CCCCc1ccccc1 (stereo not drawn) [4 F H (CH2)4 Ph 2] | 74 nM |  |  | Ki (dopamine (D-2) receptors; [6]): 770 nM |
| Fc1ccc2[nH]c3c(c2c1)C1CCC(C3)N1Cc1ccccc1I (stereo not drawn) [4 F H CH2 2-IPh 2] |  | 531000 nM | 0% |  |
| O=C1c2ccccc2C(=O)N1CCN1C2CCC1c1c([nH]c3ccccc13)C2 (stereo not drawn) [6 H H (CH2)2 2-phthalimido 2] |  | 52100 nM |  | inhibition at 1 µM [1, 7]: 5.3% |
| c1ccc(OCCN2C3CCC2c2c([nH]c4ccccc24)C3)cc1 (stereo not drawn) [1 H H (CH2)2 OPh 2] | 20 nM | 2600 nM |  | IC50 [2]: 534 ± 57 nM; IC50 [3]: 110 ± 14 nM |
| CC(CCc1ccccc1)N1C2CCC1c1c([nH]c3ccccc13)C2 (single isomer, unassigned) [1 (low Rf) H H CH(CH3)(CH2)2 Ph 2] |  | 530 nM | 72.8% | IC50 [2]: 1160 nM; IC50 [3]: 119 nM |
| Fc1ccc2[nH]c3c(c2c1)C1CCC(C3)N1 (stereo not drawn) [4 F H -- H 2] |  | 36600 nM | 28.2% |  |
| c1ccc(CCN2C3CCC2c2c(n(Cc4ccccc4)c4ccccc24)C3)cc1 (stereo not drawn) [5 H Bn (CH2)2 Ph 2] |  | 1620 nM | 23.3% |  |
| CCCN1C2CCC1c1c([nH]c3ccccc13)C2 (stereo not drawn) [1 H H (CH2)2 CH3 2] |  | 14400 ± 4400 nM |  |  |
| Cn1c2c(c3ccccc31)C1CCC(C2)N1CCCCc1ccccc1 (stereo not drawn) [5 H CH3 (CH2)4 Ph 2] |  | 1820 ± 80 nM | 49% |  |
| c1ccc2c(c1)CN(CCN1C3CCC1c1c([nH]c4ccccc14)C3)C2 (stereo not drawn) [7 H H (CH2)2 2-isoindolinyl 2] |  | 2200 ± 180 nM |  | inhibition at 1 µM [1, 7]: 55.1% |

| SMILES | Ki [1] | Ki (dopamine (D-2) receptors; [4]) | inhibition at 1 µM [1, 5] | also measured |
| --- | --- | --- | --- | --- |
| Fc1ccc(OCCCN2C3CCC2c2c([nH]c4ccccc24)C3)cc1 (stereo not drawn) [1 H H (CH2)3 O-4-FPh 2] | 11.4 nM |  |  |  |
| CN1C2CCC1c1c([nH]c3ccccc13)C2 (stereo not drawn) [3 H H -- CH3 2] |  | 16700 ± 6000 nM | 26.4% |  |
| CC(CCc1ccccc1)N1C2CCC1c1c([nH]c3ccccc13)C2 (single isomer, unassigned) [1 (high Rf) H H CH(CH3)(CH2)2 Ph 2] |  | 1110 nM |  | IC50 [2]: 1500 nM; IC50 [3]: 23 nM |
| Fc1ccc(CCCCN2C3CCC2c2c([nH]c4ccccc24)C3)cc1 (stereo not drawn) [1 H H (CH2)4 4-FPh 2] | 22.1 nM |  |  | Ki (dopamine (D-2) receptors; [6]): 1160 nM |
| C=CCCN1C2CCC1c1c([nH]c3ccccc13)C2 (stereo not drawn) [1 H H (CH2)2 CHCH2 2] |  | 710 nM | 12.3% |  |
| Clc1ccc(CCN2C3CCC2c2c([nH]c4ccccc24)C3)cc1Cl (stereo not drawn) [1 H H (CH2)2 3,4-Cl2 Ph 2] |  | 3430 nM | 6.7% |  |
| c1ccc(CCN2C3CCC2c2c([nH]c4ccccc24)C3)cc1 (stereo not drawn) [1 H H (CH2)2 Ph 2] |  | 840 nM | 8.8% |  |
| c1ccc2c3c([nH]c2c1)CC1CCC3N1 (stereo not drawn) [1 H H -- H 2] |  | 100000 nM | 0.2% | IC50 [2]: 2180 nM |
| O=C1CC2(CCCC2)CC(=O)N1CCCCN1C2CCC1c1c([nH]c3ccccc13)C2 (stereo not drawn) [1 H H (CH2)4 [drawing 3] 2] |  |  | 12% | Ki (dopamine (D-2) receptors; [8]): 2380 ± 560 nM |
| Clc1ccc(OCCN2C3CCC2c2c([nH]c4ccccc24)C3)cc1Cl (stereo not drawn) [7 H H (CH2)2 O-3,4-Cl2 Ph 2] |  | 650 nM | 48.9% |  |
| CN(CCc1ccc(Cl)c(Cl)c1)CCN1C2CCC1c1c([nH]c3ccccc13)C2 (stereo not drawn) [9 H H (CH2)2 N(CH3)CH2 CH2-3,4-Cl2 Ph 2] |  | 2530 ± 160 nM |  | inhibition at 1 µM [1, 7]: 34.7% |
| Fc1ccc2[nH]c3c(c2c1)C1CCC(C3)N1CCCN1Cc2ccccc2C1 (stereo not drawn) [7 F H (CH2)3 2-isoindolinyl 2] |  | 1780 ± 630 nM |  | inhibition at 1 µM [1, 7]: 72.2% |
| O=C(CCCCN1C2CCC1c1c([nH]c3ccccc13)C2)c1ccc(F)cc1 (stereo not drawn) [1 H H (CH2)4 CO 4-FPh 2] |  |  |  | IC50 [2]: 224 nM; Ki (dopamine (D-2) receptors; [8]): 3.5 nM; IC50 [3]: 131 nM |
| c1ccc(CCCCN2C3CCC2c2c([nH]c4ccccc24)C3)cc1 (stereo not drawn) [1 H H (CH2)4 Ph 2] | 56.5 nM |  |  | Ki (dopamine (D-2) receptors; [8]): 720 nM |
| O=C(CCCN1C2CCC1c1c([nH]c3ccc(F)cc13)C2)c1ccc(F)cc1 (stereo not drawn) [4 F H (CH2)3 CO 4-FPh 2] | 2.07 nM |  |  | IC50 [2]: 408 nM; IC50 [3]: 55 nM |
| C(=C\c1ccccc1)/CN1C2CCC1c1c([nH]c3ccccc13)C2 (stereo not drawn) [1 H H E-CH2 CHCH Ph 2] |  | 2460 nM | 36.6% |  |
| c1ccc(CCCN2C3CCC2c2c([nH]c4ccccc24)C3)cc1 (stereo not drawn) [1 H H (CH2)3 Ph 2] | 106 nM | 2600 nM |  |  |
